# Measured values reported in publication PMC12627933, “A First-In-Human Study of the SUMOylation Inhibitor Subasumstat in Patients with Advanced/Metastatic Solid Tumors or Relapsed/Refractory Hematologic Malignancies” (Cancer Research Communications, 2025).
# Experiment: Safety: treatment-emergent adverse events (NCI CTCAE v5.0; CRS per ASTCT), phase I/II study NCT03648372
# Assay type: in vivo
# Method: This study comprised two parts: a phase I dose escalation and a phase II dose expansion (Fig. 1). In the dose-escalation phase, patients were enrolled to receive subasumstat intravenously as a 1-hour (±10 minutes) infusion on days 1, 4, 8, and 11 of a 21-day cycle (biweekly schedule). […] Dose escalation was based on cohort with an adaptive design using Bayesian logistic regression modeling with overdose control. The starting dose of subasumstat was based on Good Laboratory Practice animal toxicity studies and supported by the estimation of a minimum anticipated biologically effective level. A detailed description of dose-limiting toxicities (DLT) is presented in the Supplementary Methods.
# The phase II dose-expansion portion enrolled patients to receive the recommended phase II dose (RP2D) determined in phase I, with each cohort assessed separately using an adaptive two-stage design for a single proportion (see Supplementary Methods). For stage 1, each cohort was analyzed when a prespecified number of patients were enrolled and had the potential to have at least one posttreatment scan [i.e., after the first disease assessment, 2 months from cycle 1 day 1 (C1D1)]. If the prespecified minimal response rate was not achieved in the first stage for a given cohort, that cohort would be closed to enrollment. […] The final analysis of the primary endpoints for each cohort would take place when all ongoing patients had the opportunity to complete the 6-month disease assessment. Across both phases, patients received subasumstat for up to 1 year or until confirmed disease progression, unacceptable toxicity, if any withdrawal criterion from the study was met, or if discontinuation of subasumstat occurred.
# The occurrence of DLTs was assessed during cycle 1 (DLTs are described in the Supplementary Methods). Treatment-emergent adverse events (TEAE) were graded according to NCI Common Terminology Criteria for Adverse Events version 5.0, except for cytokine release syndrome (CRS), which was graded according to the American Society for Transplantation and Cellular Therapy Consensus Grading for CRS ([20]).
# It was anticipated that approximately 70 DLT-evaluable patients would be enrolled for dose escalation. The safety analysis set included all patients who received at least one dose, even if incomplete, of subasumstat. […] The overall response rate (ORR) was defined as the proportion of patients who achieved complete response and partial response (PR) during the study. The disease control rate (DCR) was defined as the proportion of patients who achieved […] as per RECIST v1.1 for solid tumors or Lugano classification for lymphomas. […] Progression-free survival was summarized descriptively using the Kaplan–Meier method.
smiles,measurement,setting,value
Cc1sc(C(=O)c2cncnc2N[C@@H]2C[C@H](COS(N)(=O)=O)[C@@H](O)C2)cc1[C@@H]1NCCc2ccc(Cl)cc21 [subasumstat],Subasumstat-related TEAE: Nausea,Phase II (n = 25),4 (16.0) n (%)
same,Subasumstat-related TEAE: Pyrexia,Phase II (n = 25),9 (36.0) n (%)
same,Subasumstat-related TEAE: Vomiting,Phase II (n = 25),1 (4.0) n (%)
same,TEAE: Abdominal distension,Phase II (n = 25),1 (4.0) n (%)
same,TEAE: Abdominal pain,Phase II (n = 25),4 (16.0) n (%)
same,TEAE: Anemia,Phase II (n = 25),7 (28.0) n (%)
same,TEAE: Arthralgia,Phase II (n = 25),5 (20.0) n (%)
same,TEAE: Back pain,Phase II (n = 25),2 (8.0) n (%)
same,TEAE: CRS,Phase II (n = 25),3 (12.0) n (%)
same,TEAE: Chills,Phase II (n = 25),8 (32.0) n (%)
same,TEAE: Constipation,Phase II (n = 25),2 (8.0) n (%)
same,TEAE: Decreased appetite,Phase II (n = 25),5 (20.0) n (%)
same,TEAE: Dehydration,Phase II (n = 25),2 (8.0) n (%)
same,TEAE: Diarrhea,Phase II (n = 25),10 (40.0) n (%)
same,TEAE: Dyspnea,Phase II (n = 25),4 (16.0) n (%)
same,TEAE: Fatigue,Phase II (n = 25),9 (36.0) n (%)
same,TEAE: Headache,Phase II (n = 25),7 (28.0) n (%)
same,TEAE: Hypophosphatemia,Phase II (n = 25),0 n (%)
same,TEAE: Insomnia,Phase II (n = 25),2 (8.0) n (%)
same,TEAE: Nausea,Phase II (n = 25),4 (16.0) n (%)
same,TEAE: Peripheral edema,Phase II (n = 25),2 (8.0) n (%)
same,TEAE: Pleural effusion,Phase II (n = 25),3 (12.0) n (%)
same,TEAE: Pyrexia,Phase II (n = 25),11 (44.0) n (%)
same,TEAE: Stomatitis,Phase II (n = 25),3 (12.0) n (%)
same,TEAE: Vomiting,Phase II (n = 25),2 (8.0) n (%)
same,TEAEs,Phase II (n = 25),24 (96.0) n (%)
same,TEAEs leading to discontinuation,Phase II (n = 25),4 (16.0) n (%)
same,TEAEs leading to discontinuation related to subasumstat,Phase II (n = 25),1 (4.0) n (%)
same,TEAEs related to subasumstat,Phase II (n = 25),22 (88.0) n (%)
same,AESI (adverse event of special interest),Total (N = 109),12 (11.0) n (%)
same,AESI related to subasumstat,Total (N = 109),12 (11.0) n (%)
same,AESI: CRS,Total (N = 109),12 (11.0) n (%)
same,Grade ≥3 TEAE: Abdominal pain,Total (N = 109),6 (5.5) n (%)
same,Grade ≥3 TEAE: Acute kidney injury,Total (N = 109),4 (3.7) n (%)
same,Grade ≥3 TEAE: Anemia,Total (N = 109),14 (12.8) n (%)
same,Grade ≥3 TEAE: Aspartate aminotransferase increased,Total (N = 109),2 (1.8) n (%)
same,Grade ≥3 TEAE: Blood bilirubin increased,Total (N = 109),2 (1.8) n (%)
same,Grade ≥3 TEAE: Dyspnea,Total (N = 109),4 (3.7) n (%)
same,Grade ≥3 TEAE: Fatigue,Total (N = 109),5 (4.6) n (%)
same,Grade ≥3 TEAE: Hyperbilirubinemia,Total (N = 109),2 (1.8) n (%)
same,Grade ≥3 TEAE: Hypertension,Total (N = 109),2 (1.8) n (%)
same,Grade ≥3 TEAE: Hypokalemia,Total (N = 109),7 (6.4) n (%)
same,Grade ≥3 TEAE: Hypomagnesemia,Total (N = 109),2 (1.8) n (%)
same,Grade ≥3 TEAE: Hypophosphatemia,Total (N = 109),2 (1.8) n (%)
same,Grade ≥3 TEAE: Lymphocyte count decreased,Total (N = 109),5 (4.6) n (%)
same,Grade ≥3 TEAE: Lymphopenia,Total (N = 109),2 (1.8) n (%)
same,Grade ≥3 TEAE: Muscular weakness,Total (N = 109),2 (1.8) n (%)
same,Grade ≥3 TEAE: Nausea,Total (N = 109),2 (1.8) n (%)
same,Grade ≥3 TEAE: Neutropenia,Total (N = 109),4 (3.7) n (%)
same,Grade ≥3 TEAE: Platelet count increased,Total (N = 109),3 (2.8) n (%)
same,Grade ≥3 TEAE: Pleural effusion,Total (N = 109),2 (1.8) n (%)
same,Grade ≥3 TEAE: Pneumonia,Total (N = 109),2 (1.8) n (%)
same,Grade ≥3 TEAE: Pneumonitis,Total (N = 109),2 (1.8) n (%)
same,Grade ≥3 TEAE: Pyrexia,Total (N = 109),2 (1.8) n (%)
same,Grade ≥3 TEAE: Small intestinal obstruction,Total (N = 109),4 (3.7) n (%)
same,Grade ≥3 TEAE: Thrombocytopenia,Total (N = 109),2 (1.8) n (%)
same,Grade ≥3 TEAE: Vomiting,Total (N = 109),4 (3.7) n (%)
same,Grade ≥3 TEAEs,Total (N = 109),66 (60.6) n (%)
same,Grade ≥3 TEAEs related to subasumstat,Total (N = 109),29 (26.6) n (%)
same,On-study deaths,Total (N = 109),12 (11.0) n (%)
same,Patients with at least one grade ≥3 TEAE,Total (N = 109),66 (60.6) n (%)
same,Serious adverse events,Total (N = 109),48 (44.0) n (%)
same,Serious adverse events related to subasumstat,Total (N = 109),12 (11.0) n (%)
same,TEAE: Abdominal distension,Total (N = 109),12 (11.0) n (%)
same,TEAE: Abdominal pain,Total (N = 109),21 (19.3) n (%)
same,TEAE: Anemia,Total (N = 109),19 (17.4) n (%)
same,TEAE: Arthralgia,Total (N = 109),17 (15.6) n (%)
same,TEAE: Back pain,Total (N = 109),14 (12.8) n (%)
same,TEAE: CRS,Total (N = 109),12 (11.0) n (%)
same,TEAE: Chills,Total (N = 109),28 (25.7) n (%)
